Source: patent US12646341B2, “Image processing method and image processing program” (TOPPAN Inc., priority 2020, dated 2026)

Test system: vascular network structure of 3D hepatic model (PXB cells, SEC, Lx2)
Source text: The vascular network structure of the cell structure becomes visible by subjecting the 3D hepatic model to immunostaining, fluorescent modification, or a combination of immunostaining and fluorescent modification.
The preparation process may include, for example, a first collection process of collecting cells other than fresh human hepatocytes isolated from chimeric mice with human hepatocytes (PXB cell) shown in Table 1, a second collection process of collecting PXB cells, a mixture obtaining process of obtaining a cell mixture, a suspension obtaining process of obtaining a cell suspension, a gel formation process of forming a fibrin gel, and a model obtaining process of obtaining a 3D model.
In the mixture obtaining process, for example, the cells collected in the first collection process and the second collection process are mixed so that a total quantity of cells per well becomes 30,000 cells at the cell ratios of PXB cells, SEC and Lx2 in the tissue of 65%, 25% and 10%, respectively, to obtain a cell mixture (an example of cell structure). The cell mixture contains multiple types of cells including vascular endothelial cells and other stromal cells.
In the suspension obtaining process, first, for example, a heparin-collagen solution is prepared by mixing equal amounts of a 1.0 mg/ml heparin solution (buffer: 100 mM Tris-HCL) and a 0.3 mg/ml collagen solution (buffer: 5 mM acetate). Then, 100 μL of the heparin-collagen solution prepared as described above is added to each cell mixture obtained in the mixture obtaining process, and the mixture is suspended until the cells are no longer visually observable and then centrifuged (400 g×2 min) to obtain a viscous solution. After the supernatant is removed from the viscous solution, a solvent is added to the viscous solution so that the final volume of the viscous solution becomes the solution amount of [the number of wells to be seeded]×2 μL. Thus, a cell suspension is obtained. […]

O=P1(N(CCCl)CCCl)NCCCO1 (stereo not drawn) [cyclophosphamide]
length of the vascular network structure in the captured images (FIGS. 9A-9F, dosage concentration 0 M, 143 M, 430 M, 1430 μM, 4300 μM and 14300 M): the higher the dosage concentration of cyclophosphamide, the smaller the length of the vascular network structure | skeleton length in the extracted images (FIGS. 9G-9L, dosage concentration 0 M, 143 M, 430 M, 1430 μM, 4300 μM and 14300 M): the higher the dosage concentration of cyclophosphamide, the smaller the skeleton length | shape of the vascular network structure (skeleton length and number of branch points in the extracted images) (FIGS. 10A and 10B, against dosage concentration): the shape of the vascular network structure significantly changes and the vascular network structure decreases when the dosage concentration of cyclophosphamide exceeds a certain level
